Literature values as cited in PubChem BioAssay AID1259409 (Chemical Carcinogenesis Research Information System (CCRIS), 2018).

Tested on: rodent chemically induced tumor inhibition, incidence and multiplicity
Assay: CCRIS tumor inhibitor studies
Conditions: Carcinogen: 7,12-DIMETHYLBENZ[A]ANTHRACENE, 57-97-6, Route [Inhibitor]: SUBCUTANEOUS, Promoter: NONE USED

CC(C)C[C@H]1C(=O)N2CCC[C@H]2[C@]2(O)O[C@](NC(=O)[C@@H]3C=C4c5cccc6[nH]c(Br)c(c56)C[C@H]4N(C)C3)(C(C)C)C(=O)N12
tumour outcome (control, treated, inhibition, significance) (Dose [Inhibitor]: 0.1 MG 1/D FOR 81 D BEGINNING 30 D PRIOR TO FIRST CARCINOGEN DOSE TO 30 D POST LAST CARCINOGEN DOSE (STUDY DURATION: 31, Species: MOUSE, Strain/Sex: BALB/FEMALE, Target Tissue: Type of Lesion: MAMMARY GLAND: CARCINOMA, Dose [Carcinogen]: 1 MG IN SESAME OIL 1/WK FOR 4 WK): 8%, 8%, 0%, not significant
tumour outcome (control, treated, inhibition, significance) (Dose [Inhibitor]: 0.1 MG/30 G BW FOR 81 D BEGINNING 30 D POST LAST CARCINOGEN DOSE (STUDY DURATION: 27 WK), Species: MOUSE, Strain/Sex: BALB/FEMALE, Target Tissue: Type of Lesion: MAMMARY GLAND: CARCINOMA, Dose [Carcinogen]: 1 MG IN SESAME OIL 1/WK FOR 4 WK): 7%, 8%, -14%, not significant
tumour outcome (control, treated, inhibition, significance) (Dose [Inhibitor]: 0.4 MG/100 G BW 1/D FOR 50 D BEGINNING 30 D POST LAST CARCINOGEN DOSE (90 D TO 140 D OF AGE) (STUDY DURATION: 25 WK), Species: RAT, Strain/Sex: LEWIS/FEMALE, Target Tissue: Type of Lesion: MAMMARY GLAND: CARCINOMA, Dose [Carcinogen]: 10 MG IN SESAME OIL ONCE AT 56 D OF AGE AND ONCE AT 63 D OF AGE): 94%, 56%, 40%, p<0.005
tumour outcome (control, treated, inhibition, significance) (Dose [Inhibitor]: 0.4 MG/100 G BW 1/D FOR 61 D BEGINNING 27 D PRIOR TO FIRST CARCINOGEN DOSE TO 27 D POST LAST CARCINOGEN DOSE (29 TO 90 D, Species: RAT, Strain/Sex: LEWIS/FEMALE, Target Tissue: Type of Lesion: MAMMARY GLAND: CARCINOMA, Dose [Carcinogen]: 10 MG IN SESAME OIL ONCE AT 56 D OF AGE AND ONCE AT 63 D OF AGE): 68%, 60%, 12%, not significant
tumour outcome (control, treated, inhibition, significance) (Dose [Inhibitor]: 0.4 MG/100 G BW 4/WK FOR 20 WK BEGINNING 12 D PRIOR TO FIRST CARCINOGEN DOSE (STUDY DURATION: 152 D), Species: RAT, Strain/Sex: LONG-EVANS/FEMALE, Target Tissue: Type of Lesion: HEMATOPOIETIC SYSTEM: LEUKEMIA (UNDIFFERENTIATED CELL), Dose [Carcinogen]: 10 MG IN SESAME OIL 1/2 WK FOR 12 WK (6 TOTAL DOSES)): 13/40 (33%), 15/41 (36%), -9%, not significant
tumour outcome (control, treated, inhibition, significance) (Dose [Inhibitor]: 0.4 MG/100 G BW 4/WK FOR 35 WK BEGINNING 12 D PRIOR TO FIRST CARCINOGEN DOSE (STUDY DURATION: 257 D), Species: RAT, Strain/Sex: LONG-EVANS/MALE, Target Tissue: Type of Lesion: HEMATOPOIETIC SYSTEM: LEUKEMIA (UNDIFFERENTIATED CELL), Dose [Carcinogen]: 10 MG IN SESAME OIL 1/2 WK FOR 12 WK (6 TOTAL DOSES)): 10/38 (26%), 8/38 (21%), 19%, not significant
tumour outcome (control, treated, inhibition, significance) (Dose [Inhibitor]: 0.4 MG/D FROM 26 TO 93 D OF AGE BEGINNING 30 D PRIOR TO FIRST CARCINOGEN DOSE (STUDY DURATION: 9 MO AFTER LAST DMBA TREA, Species: RAT, Strain/Sex: LEWIS/FEMALE, Target Tissue: Type of Lesion: MAMMARY GLAND: CARCINOMA, Dose [Carcinogen]: 10 MG TWICE ONCE AT 56 D AND ONCE AT 63 D OF AGE): 70%, 62%, 11%, not significant
tumour outcome (control, treated, inhibition, significance) (Dose [Inhibitor]: 0.4 MG/D FROM 30 TO 90 D OF AGE BEGINNING 30 D PRIOR TO CARCINOGEN DOSE (STUDY DURATION: 6 MO AFTER DMBA TREATMENT), Species: RAT, Strain/Sex: SPRAGUE-DAWLEY/FEMALE, Target Tissue: Type of Lesion: MAMMARY GLAND: CARCINOMA, Dose [Carcinogen]: 20 MG ONCE AT 60 D OF AGE): 96%, 82%, 15%, p<0.05
tumour outcome (control, treated, inhibition, significance) (Dose [Inhibitor]: 0.4 MG/D FROM 30 TO 90 D OF AGE BEGINNING 30 D PRIOR TO CARCINOGEN DOSE (STUDY DURATION: 9 MO AFTER AMBA TREATMENT), Species: RAT, Strain/Sex: SPRAGUE-DAWLEY/FEMALE, Target Tissue: Type of Lesion: MAMMARY GLAND: CARCINOMA, Dose [Carcinogen]: 5 MG ONCE AT 60 D OF AGE): 82%, 60%, 27%, p<0.05
tumour outcome (control, treated, inhibition, significance) (Dose [Inhibitor]: 0.4 MG/D FROM 30 TO 90 D OF AGE BEGINNING 30 D PRIOR TO CARCINOGEN DOSE (STUDY DURATION: 9 MO AFTER DMBA TREATMENT), Species: RAT, Strain/Sex: SPRAGUE-DAWLEY/FEMALE, Target Tissue: Type of Lesion: MAMMARY GLAND: FIBROADENOMA, Dose [Carcinogen]: 5 MG ONCE AT 60 D OF AGE): 25%, 15%, 40%, not significant
tumour outcome (control, treated, inhibition, significance) (Dose [Inhibitor]: 0.4 MG/D FROM 30 TO 90 D OF AGE BEGINNING 30 D PRIOR TO CARCINOGEN DOSE (STUDY DURATION: 9 MO AFTER LAST DMBA TREATMENT), Species: RAT, Strain/Sex: LONG-EVANS/FEMALE, Target Tissue: Type of Lesion: MAMMARY GLAND: CARCINOMA, Dose [Carcinogen]: 20 MG ONCE AT 60 D OF AGE): 25%, 22%, 12%, not significant
tumour outcome (control, treated, inhibition, significance) (Dose [Inhibitor]: 0.4 MG/D FROM 30 TO 90 D OF AGE BEGINNING 30 D PRIOR TO CARCINOGEN DOSE (STUDY DURATION: 9 MO AFTER LAST DMBA TREATMENT), Species: RAT, Strain/Sex: LONG-EVANS/FEMALE, Target Tissue: Type of Lesion: MAMMARY GLAND: FIBROADENOMA, Dose [Carcinogen]: 20 MG ONCE AT 60 D OF AGE): 12%, 3%, 75%, not significant
tumour outcome (control, treated, inhibition, significance) (Dose [Inhibitor]: 0.4 MG/D FROM 30 TO 90 D OF AGE BEGINNING 30 D PRIOR TO CARCINOGEN DOSE (STUDY DURATION: 12 MO AFTER DMBA TREATMENT), Species: RAT, Strain/Sex: SPRAGUE-DAWLEY/FEMALE, Target Tissue: Type of Lesion: MAMMARY GLAND: CARCINOMA, Dose [Carcinogen]: 1.25 MG ONCE AT 60 D OF AGE): 10%, 10%, 0%, not significant
tumour outcome (control, treated, inhibition, significance) (Dose [Inhibitor]: 0.4 MG/D FROM 30 TO 90 D OF AGE BEGINNING 30 D PRIOR TO CARCINOGEN DOSE (STUDY DURATION: 12 MO AFTER DMBA TREATMENT), Species: RAT, Strain/Sex: SPRAGUE-DAWLEY/FEMALE, Target Tissue: Type of Lesion: MAMMARY GLAND: FIBROADENOMA, Dose [Carcinogen]: 1.25 MG ONCE AT 60 D OF AGE): 90%, 80%, 11%, p<0.05
